Measured values published in patent US10842806B2, “Methods for treating ocular inflammatory disorders” (Massachusetts Eye and Ear Infirmary, priority 2011, dated 2020).

Key:
[1] = test system: CD4+CD25+Foxp3+ Treg population; test: Treg population in LN cells of EAU mice (flow cytometry); type: in vivo, C57BL/6 (WT) mice; conditions: control vs AICAR-treated mice; 21 days after immunization
Text: The effect of AICAR on the regulatory T (Treg) cell population in the EAU mice was also directly assessed. Specifically, LN cells from five mice were harvested at 21 days after immunization and stained with a mouse regulatory T cell staining kit #2 (eBioscience) according to manufacturer's instructions. CD4^+CD25^+Foxp3^+ Treg populations were subsequently detected by flow cytometry.

[2] = test system: experimental autoimmune uveitis (EAU); test: Clinical scoring of EAU by funduscopic examination; type: in vivo, C57BL/6 (WT) mice
lymph node (LN) cells = test: Proliferation, cytokine production and transcription factor expression of LN cells from AICAR-treated EAU mice; type: in vivo, C57BL/6 (WT) mice
Method: To extract LN cells, draining lymph nodes from 6 to 8 mice were isolated at sixteen days after immunization and pooled. Single cell suspensions were made using a cell strainer (BD, Franklin Lakes, N.J.). CD4 T cell-enriched fractions were prepared using CD4 Microbeads (Miltenyi Biotec GmbH, Bergisch Gladbach, Germany), and purity of the suspensions was determined by staining with anti-CD4 antibody (GK1.5, Biolegend, San Diego, Calif.) and flow cytometry. All experimental samples of CD4 T cell-enriched fractions were at least 95% CD4-positive. To measure cell proliferation, LN cells were resuspended at 5×10^5 cells per 200 μl of medium in 96-well flat-bottom plates. Cells were incubated for 72 hours and proliferation during the last 12 hours was measured by using a bromodeoxyuridine (BrdU) cell proliferation assay kit (Millipore, Billerica, Mass.). Supernatant in the culture medium was collected at 48 hours and cytokine production in the supernatant was measured by ELISA using the Quantikine mouse IFN-γ, IL-4, IL-10 and IL-17 kits (R&D system, Minneapolis, Minn.). To measure the expression of T-bet and RORγt, real-time PCR was carried out as described above using the following TaqMan gene expression assays: T-bet (Mm00450960_m1) and RORγt (Mm01261022_m1). Quantitative expression data were acquired and analyzed with a Step One Plus real-time PCR system (Applied Biosystems). In order to assess the in vivo effect of AICAR on the development of IRBP-reactive T cells, LN cells from control and AICAR-treated mice were stimulated with either IRBP or a non-specific T cell stimulator, anti-CD3. Proliferative response was measured with BrdU incorporation. […] In comparison, when the cells were treated with anti-CD3, there was no difference in T cell proliferation between the AICAR treated and control mice (FIG. 8B).

CD14 = CD14 mRNA (real time PCR) and protein (Western blot) in PBMC of EIU rats; type: in vivo, Lewis rats; conditions: three hours after LPS
Method: Male Lewis rats ranging from 6-8 weeks old (Charles River, Wilmington, Mass.) were used for these studies. To study the effects of AICAR pretreatment, AICAR and PBS (for placebo treatment) were delivered via intraperitoneal injection of AICAR (50 mg/kg or 100 mg/kg body weight; Sigma) diluted in 150 μl PBS or equal volume of PBS at 6 hours before and at the same time as LPS injection. Four experimental groups of rats were compared: (1) Normal: no treatment (2) AICAR: normal rats treated with AICAR 6 hours before examination; (3) LPS: EIU rats treated with PBS; (4) LPS+AICAR: EIU rats treated with AICAR. Two additional groups of rats were used to study the effects of AICAR (50 mg/kg) given either at the same time as LPS injection or at 6 hours after LPS injection. For preparation of peripheral blood mononuclear cell (PBMC) samples, blood samples were collected at three hours after LPS injection, and PBMC samples were isolated by density gradient centrifugation with Histopaque 1083 (Sigma). The red blood cells were lysed with Red Blood Cell Lysing Buffer (Sigma). For Western blot analysis, pooled PBMCs from three rats were homogenized with lysis buffer (Roche Diagnostics Corp) and centrifuged at 13,000 rpm for 10 minutes at 4° C. […] Quantitative expression data were acquired and analyzed with a Step One Plus real-time PCR system (Applied Biosystems).

[3] = AICAR-treated EAU mice, real-time PCR
[4] = LN cells from AICAR-treated EAU mice, ELISA

NC(=O)c1ncn([C@@H]2O[C@H](CO)[C@@H](O)[C@H]2O)c1N [AICAR, 5-aminoimidazole-4-carboxamide-1-β-d-ribofuranoside]
CD4+CD25+Foxp3+ Treg population [1]: not significantly different | EAU mean clinical score ([2]; AICAR 200 mg/kg i.p. daily day 0 to 21, day 21, scale 0-4, n=15, control 2.6±0.70): 1.32±0.95 | Clinical inflammation on fundus examination ([2]; AICAR 100 or 200 mg/kg daily, dose-dependent manner): suppressed | EAU mean clinical score, effector phase treatment ([2]; AICAR administered from day 8 to 21 after immunization, n=8, controls 2.44±0.56): 1.50±0.86 | RORγt mRNA expression in CD4 T cells (lymph node (LN) cells; [3]): suppressed | T-bet mRNA expression in CD4 T cells (lymph node (LN) cells; [3]): suppressed | T cell proliferation (BrdU), anti-CD3 stimulation (lymph node (LN) cells; LN cells from AICAR treated vs control mice): no difference | IFN-γ production by LN cells (lymph node (LN) cells; [4]): significantly suppressed | IL-10 production by LN cells (lymph node (LN) cells; [4]): significantly suppressed | IL-17 production by LN cells (lymph node (LN) cells; [4]): significantly suppressed | Antigen-specific T cell proliferation (BrdU), IRBP stimulation (lymph node (LN) cells; LN cells from AICAR-treated vs untreated EAU mice, dose-dependent manner): suppressed | CD14 mRNA expression in PBMCs (CD14; AICAR pretreatment, n=9, EIU 3.8±0.7, normal 0.7±0.3): 1.7±1.0 | CD14 protein expression in PBMCs (Western blot) (CD14; AICAR-pretreated rats vs EIU rats): decreased
